According to the NIST ThermoML archive (doi:10.1021/je060271a):
± gives the expanded uncertainty stated by the source.

Details: 283.15 K, Liquid, Vibrating tube method

CCCCCC(=O)OCC(COC(=O)CCCCC)(COC(=O)CCCCC)COC(=O)CCCCC [pentaerythritol tetrahexanoate]
Details	mass density [kg/m3]
219.9 kPa	1004.3 ± 1.2
220.4 kPa	1004.3 ± 1.2
221.1 kPa	1004.3 ± 1.2
221.3 kPa	1004.1 ± 1.2
222 kPa	1004.2 ± 1.2
222.5 kPa	1004.3 ± 1.2
223.2 kPa	1004.1 ± 1.2
223.5 kPa	1004.4 ± 1.2
224.1 kPa	1004.3 ± 1.2
227.9 kPa	1004.2 ± 1.2
228.4 kPa	1004.2 ± 1.2
228.8 kPa	1004.2 ± 1.2
229.3 kPa	1004.3 ± 1.2
230 kPa	1004.2 ± 1.2
230.8 kPa	1004.4 ± 1.2
231.2 kPa	1004.2 ± 1.2
232.1 kPa	1004.3 ± 1.2
232.4 kPa	1004.2 ± 1.2
233.4 kPa	1004.2 ± 1.2
233.6 kPa	1004.3 ± 1.2
234.8 kPa	1004.1 ± 1.2
236 kPa	1004.3 ± 1.2
237.6 kPa	1004.4 ± 1.2
238.1 kPa	1004.2 ± 1.2
238.8 kPa	1004.2 ± 1.2
239.2 kPa	1004.3 ± 1.2
239.9 kPa	1004.3 ± 1.2
240.7 kPa	1004.2 ± 1.2
241.4 kPa	1004.3 ± 1.2
242 kPa	1004.4 ± 1.2
242.8 kPa	1004.3 ± 1.2
243.5 kPa	1004.3 ± 1.2
243.9 kPa	1004.3 ± 1.2
244.9 kPa	1004.3 ± 1.2
245.6 kPa	1004.1 ± 1.2
246.3 kPa	1004.3 ± 1.2
247 kPa	1004.3 ± 1.2
247.7 kPa	1004.3 ± 1.2
248.6 kPa	1004.3 ± 1.2
249.6 kPa	1004.1 ± 1.2
249.9 kPa	1004.2 ± 1.2
250.5 kPa	1004.3 ± 1.2
251.5 kPa	1004.3 ± 1.2
251.9 kPa	1004.3 ± 1.2
252.2 kPa	1004.3 ± 1.2
252.7 kPa	1004.2 ± 1.2
253.4 kPa	1004.3 ± 1.2
254.6 kPa	1004.3 ± 1.2
255.2 kPa	1004.3 ± 1.2
256 kPa	1004.3 ± 1.2
256.9 kPa	1004.2 ± 1.2
257.8 kPa	1004.4 ± 1.2
258.6 kPa	1004.3 ± 1.2
259.7 kPa	1004.3 ± 1.2
260.5 kPa	1004.3 ± 1.2
261.2 kPa	1004.3 ± 1.2
261.9 kPa	1004.2 ± 1.2
262.8 kPa	1004.2 ± 1.2
263.5 kPa	1004.4 ± 1.3
264.5 kPa	1004.2 ± 1.2
265.2 kPa	1004.2 ± 1.2
266.4 kPa	1004.3 ± 1.2
267 kPa	1004.3 ± 1.2
267.8 kPa	1004.2 ± 1.2
269.1 kPa	1004.3 ± 1.2
269.8 kPa	1004.3 ± 1.2
270.8 kPa	1004.3 ± 1.2
271.7 kPa	1004.3 ± 1.2
272.5 kPa	1004.3 ± 1.2
273.4 kPa	1004.3 ± 1.2
274.4 kPa	1004.2 ± 1.2
275.3 kPa	1004.2 ± 1.2
276.4 kPa	1004.3 ± 1.2
277.6 kPa	1004.4 ± 1.2
278.1 kPa	1004.2 ± 1.2
279.1 kPa	1004.3 ± 1.2
280.5 kPa	1004.2 ± 1.2
281.2 kPa	1004.2 ± 1.2
282.6 kPa	1004.3 ± 1.2
283.7 kPa	1004.3 ± 1.2
284.3 kPa	1004.2 ± 1.2
285.7 kPa	1004.3 ± 1.2
286.8 kPa	1004.3 ± 1.2
287.6 kPa	1004.2 ± 1.2
288.9 kPa	1004.2 ± 1.2
289.6 kPa	1004.4 ± 1.2
290.8 kPa	1004.3 ± 1.2
291.8 kPa	1004.2 ± 1.2
292.9 kPa	1004.3 ± 1.2
294.1 kPa	1004.4 ± 1.2
295.1 kPa	1004.3 ± 1.2
296.5 kPa	1004.2 ± 1.2
297.4 kPa	1004.2 ± 1.2
298.6 kPa	1004.1 ± 1.2
299.8 kPa	1004.2 ± 1.2
300.9 kPa	1004.3 ± 1.2
301.9 kPa	1004.3 ± 1.2
303.3 kPa	1004.4 ± 1.2
304.3 kPa	1004.4 ± 1.2
305.5 kPa	1004.3 ± 1.2
306.8 kPa	1004.2 ± 1.2
308 kPa	1004.4 ± 1.2
309.4 kPa	1004.3 ± 1.2
310.6 kPa	1004.3 ± 1.2
311.5 kPa	1004.3 ± 1.2
313 kPa	1004.3 ± 1.2
314.1 kPa	1004.2 ± 1.2
315.6 kPa	1004.3 ± 1.2
317.2 kPa	1004.3 ± 1.2
318.8 kPa	1004.2 ± 1.2
320.5 kPa	1004.3 ± 1.2
322.2 kPa	1004.3 ± 1.2
324 kPa	1004.3 ± 1.2
325.2 kPa	1004.3 ± 1.2
326.4 kPa	1004.3 ± 1.2
328.3 kPa	1004.2 ± 1.2
329.5 kPa	1004.3 ± 1.2
331.8 kPa	1004.2 ± 1.2
333.3 kPa	1004.3 ± 1.2
335.1 kPa	1004.4 ± 1.2
336.8 kPa	1004.3 ± 1.2
338.4 kPa	1004.3 ± 1.2
340.1 kPa	1004.3 ± 1.2
341.9 kPa	1004.3 ± 1.2
343.1 kPa	1004.3 ± 1.2
344.6 kPa	1004.3 ± 1.2
346.7 kPa	1004.4 ± 1.2
348.1 kPa	1004.4 ± 1.2
349.2 kPa	1004.4 ± 1.2
350.2 kPa	1004.3 ± 1.2
351.1 kPa	1004.4 ± 1.2
352.6 kPa	1004.4 ± 1.2
354.7 kPa	1004.4 ± 1.2
355.6 kPa	1004.3 ± 1.2
357.2 kPa	1004.4 ± 1.2
358.9 kPa	1004.3 ± 1.2
367.6 kPa	1004.3 ± 1.2
369.3 kPa	1004.4 ± 1.2
371.3 kPa	1004.5 ± 1.2
373.2 kPa	1004.2 ± 1.2
375.4 kPa	1004.3 ± 1.2
377.5 kPa	1004.3 ± 1.2
379.4 kPa	1004.4 ± 1.2
381.5 kPa	1004.4 ± 1.2
383.6 kPa	1004.5 ± 1.2
385.7 kPa	1004.2 ± 1.2
387.9 kPa	1004.3 ± 1.2
390 kPa	1004.4 ± 1.2
391.9 kPa	1004.3 ± 1.2
394 kPa	1004.4 ± 1.2
396.6 kPa	1004.3 ± 1.2
398.4 kPa	1004.4 ± 1.2
401 kPa	1004.4 ± 1.2
413.1 kPa	1004.4 ± 1.2
415.2 kPa	1004.3 ± 1.2
417.8 kPa	1004.3 ± 1.2
420.6 kPa	1004.3 ± 1.2
423.2 kPa	1004.4 ± 1.2
425.6 kPa	1004.3 ± 1.2
428.4 kPa	1004.4 ± 1.2
430.9 kPa	1004.5 ± 1.2
434 kPa	1004.4 ± 1.2
436.2 kPa	1004.5 ± 1.2
442.3 kPa	1004.4 ± 1.2
444.9 kPa	1004.4 ± 1.2
448.1 kPa	1004.4 ± 1.2
450.8 kPa	1004.4 ± 1.2
453.4 kPa	1004.4 ± 1.2
456.8 kPa	1004.4 ± 1.2
459.7 kPa	1004.4 ± 1.2
462.7 kPa	1004.4 ± 1.2
466 kPa	1004.4 ± 1.2
469.4 kPa	1004.4 ± 1.2
472.6 kPa	1004.4 ± 1.2
476 kPa	1004.3 ± 1.2
479.5 kPa	1004.3 ± 1.2
482.8 kPa	1004.4 ± 1.4
486 kPa	1004.4 ± 1.2
489.8 kPa	1004.3 ± 1.2
493.6 kPa	1004.3 ± 1.2
496.7 kPa	1004.5 ± 1.2
512 kPa	1004.5 ± 1.2
515.7 kPa	1004.4 ± 1.2
519.1 kPa	1004.5 ± 1.2
523.7 kPa	1004.3 ± 1.2
527.3 kPa	1004.5 ± 1.2
531.3 kPa	1004.4 ± 1.2
535.3 kPa	1004.4 ± 1.2
540.3 kPa	1004.4 ± 1.2
544 kPa	1004.4 ± 1.2
548.5 kPa	1004.5 ± 1.2
553 kPa	1004.5 ± 1.2
557 kPa	1004.5 ± 1.2
561.4 kPa	1004.4 ± 1.2
566.4 kPa	1004.3 ± 1.2
571.4 kPa	1004.5 ± 1.2
576.3 kPa	1004.4 ± 1.2
580.5 kPa	1004.5 ± 1.2
585.3 kPa	1004.4 ± 1.2
590.2 kPa	1004.5 ± 1.2
595.8 kPa	1004.5 ± 1.2
600.1 kPa	1004.5 ± 1.2
604.8 kPa	1004.6 ± 1.2
611.2 kPa	1004.5 ± 1.2
616.8 kPa	1004.5 ± 1.2
621.8 kPa	1004.6 ± 1.2
627.7 kPa	1004.6 ± 1.2
633.3 kPa	1004.5 ± 1.2
638.7 kPa	1004.5 ± 1.2
644.2 kPa	1004.5 ± 1.2
650.7 kPa	1004.4 ± 1.2
657.1 kPa	1004.4 ± 1.2
676 kPa	1004.5 ± 1.2
681.9 kPa	1004.5 ± 1.2
688 kPa	1004.5 ± 1.2
694.4 kPa	1004.5 ± 1.2
700.5 kPa	1004.5 ± 1.2
707.3 kPa	1004.7 ± 1.2
714.2 kPa	1004.5 ± 1.2
720.3 kPa	1004.5 ± 1.2
728 kPa	1004.5 ± 1.2
734.6 kPa	1004.6 ± 1.2
742.2 kPa	1004.6 ± 1.2
749.5 kPa	1004.6 ± 1.2
756.6 kPa	1004.6 ± 1.2
763.9 kPa	1004.6 ± 1.2
771.1 kPa	1004.5 ± 1.2
780.4 kPa	1004.7 ± 1.2
787.7 kPa	1004.6 ± 1.2
796.1 kPa	1004.5 ± 1.2
803.7 kPa	1004.6 ± 1.2
821.4 kPa	1004.6 ± 1.2
829.9 kPa	1004.6 ± 1.2
840 kPa	1004.6 ± 1.2
848.9 kPa	1004.6 ± 1.2
857.7 kPa	1004.6 ± 1.2
866.4 kPa	1004.7 ± 1.2
877.2 kPa	1004.7 ± 1.2
886.2 kPa	1004.6 ± 1.2
895.6 kPa	1004.7 ± 1.2
905.1 kPa	1004.6 ± 1.2
916.6 kPa	1004.8 ± 1.2
926.7 kPa	1004.6 ± 1.2
936.4 kPa	1004.6 ± 1.2
948.2 kPa	1004.6 ± 1.2
958.6 kPa	1004.7 ± 1.2
969.1 kPa	1004.8 ± 1.2
979.3 kPa	1004.6 ± 1.2
989.7 kPa	1004.8 ± 1.2
1001.9 kPa	1004.8 ± 1.2
1012 kPa	1004.7 ± 1.2
1024.5 kPa	1004.7 ± 1.2
1035.1 kPa	1004.8 ± 1.2
1045.3 kPa	1004.6 ± 1.2
1055.6 kPa	1004.8 ± 1.2
1066.1 kPa	1004.7 ± 1.2
1078.8 kPa	1004.6 ± 1.2
1089.1 kPa	1004.8 ± 1.2
1099.8 kPa	1004.8 ± 1.2
1113 kPa	1004.8 ± 1.2
1123.6 kPa	1004.9 ± 1.2
1134.7 kPa	1004.8 ± 1.2
1147.6 kPa	1004.7 ± 1.2
1158.7 kPa	1004.7 ± 1.2
1170 kPa	1004.8 ± 1.2
1183.6 kPa	1004.9 ± 1.2
1194.7 kPa	1004.7 ± 1.2
1206.3 kPa	1004.9 ± 1.2
1218.1 kPa	1004.8 ± 1.2
1229.9 kPa	1004.9 ± 1.2
1241.6 kPa	1004.9 ± 1.2
1258.7 kPa	1005 ± 1.2
1270.9 kPa	1004.9 ± 1.2
1283.6 kPa	1004.8 ± 1.2
1298.2 kPa	1004.8 ± 1.2
1310.3 kPa	1004.8 ± 1.2
1322.8 kPa	1004.8 ± 1.2
1338.1 kPa	1004.9 ± 1.2
1351.5 kPa	1004.8 ± 1.2
1364.1 kPa	1004.9 ± 1.2
1377 kPa	1004.9 ± 1.2
1393.1 kPa	1004.8 ± 1.2
1406.3 kPa	1005 ± 1.2
1420 kPa	1004.9 ± 1.2
1433.4 kPa	1005 ± 1.2
1449.5 kPa	1005 ± 1.2
1462.7 kPa	1005 ± 1.2
1476.5 kPa	1004.8 ± 1.2
1492.4 kPa	1005 ± 1.2
